According to patent US8637511B2, “Aminopyrimidines useful as kinase inhibitors” (Vertex Pharmaceuticals Incorporated, priority 2005, dated 2014):
Several values for one entry are separate records, joined by “and”; a condition that tells them apart may be missing. Identical values can stand only once. Like-named read-outs stand apart in the source and are kept apart here.

What was measured:
Colo205 cells = assay: Analysis of cell proliferation and viability; type: cell-based; settings: Homo sapiens, COLO 205, Colo205 cells, read-out: IC50 value
Aurora-2 (Aurora A) = biological target: T1, Aurora-2 (Aurora A) (Homo sapiens, UniProt O14965); assay: Aurora-2 (Aurora A) inhibition assay, coupled enzyme; type: biochemical
T1 sequence (O14965 1-403): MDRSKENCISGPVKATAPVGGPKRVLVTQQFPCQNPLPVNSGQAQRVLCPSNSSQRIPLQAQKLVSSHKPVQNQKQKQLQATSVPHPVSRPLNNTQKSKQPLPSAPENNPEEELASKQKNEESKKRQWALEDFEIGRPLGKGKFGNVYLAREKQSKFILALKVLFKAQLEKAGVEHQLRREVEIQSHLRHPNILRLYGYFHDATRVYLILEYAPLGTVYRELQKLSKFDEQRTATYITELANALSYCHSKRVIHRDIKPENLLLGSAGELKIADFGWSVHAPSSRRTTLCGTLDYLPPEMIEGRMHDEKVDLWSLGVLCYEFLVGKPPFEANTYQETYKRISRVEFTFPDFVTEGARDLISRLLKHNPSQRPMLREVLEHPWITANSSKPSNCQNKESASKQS
Method in brief: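 Coupled pyruvate kinase/lactate dehydrogenase assay with NADH in pH 7.5 Hepes containing MgCl2, DTT and NaCl, using 40 nM Aurora-2 at 30 °C. After a 10 min preincubation, enzyme addition started the reaction, and initial rates were taken over 10 min. IC50 and Ki came from non-linear regression.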

JAK3 = biological target: T2, JAK3 (Homo sapiens, UniProt P52333); assay: biochemical
T2 sequence (P52333 1-1124): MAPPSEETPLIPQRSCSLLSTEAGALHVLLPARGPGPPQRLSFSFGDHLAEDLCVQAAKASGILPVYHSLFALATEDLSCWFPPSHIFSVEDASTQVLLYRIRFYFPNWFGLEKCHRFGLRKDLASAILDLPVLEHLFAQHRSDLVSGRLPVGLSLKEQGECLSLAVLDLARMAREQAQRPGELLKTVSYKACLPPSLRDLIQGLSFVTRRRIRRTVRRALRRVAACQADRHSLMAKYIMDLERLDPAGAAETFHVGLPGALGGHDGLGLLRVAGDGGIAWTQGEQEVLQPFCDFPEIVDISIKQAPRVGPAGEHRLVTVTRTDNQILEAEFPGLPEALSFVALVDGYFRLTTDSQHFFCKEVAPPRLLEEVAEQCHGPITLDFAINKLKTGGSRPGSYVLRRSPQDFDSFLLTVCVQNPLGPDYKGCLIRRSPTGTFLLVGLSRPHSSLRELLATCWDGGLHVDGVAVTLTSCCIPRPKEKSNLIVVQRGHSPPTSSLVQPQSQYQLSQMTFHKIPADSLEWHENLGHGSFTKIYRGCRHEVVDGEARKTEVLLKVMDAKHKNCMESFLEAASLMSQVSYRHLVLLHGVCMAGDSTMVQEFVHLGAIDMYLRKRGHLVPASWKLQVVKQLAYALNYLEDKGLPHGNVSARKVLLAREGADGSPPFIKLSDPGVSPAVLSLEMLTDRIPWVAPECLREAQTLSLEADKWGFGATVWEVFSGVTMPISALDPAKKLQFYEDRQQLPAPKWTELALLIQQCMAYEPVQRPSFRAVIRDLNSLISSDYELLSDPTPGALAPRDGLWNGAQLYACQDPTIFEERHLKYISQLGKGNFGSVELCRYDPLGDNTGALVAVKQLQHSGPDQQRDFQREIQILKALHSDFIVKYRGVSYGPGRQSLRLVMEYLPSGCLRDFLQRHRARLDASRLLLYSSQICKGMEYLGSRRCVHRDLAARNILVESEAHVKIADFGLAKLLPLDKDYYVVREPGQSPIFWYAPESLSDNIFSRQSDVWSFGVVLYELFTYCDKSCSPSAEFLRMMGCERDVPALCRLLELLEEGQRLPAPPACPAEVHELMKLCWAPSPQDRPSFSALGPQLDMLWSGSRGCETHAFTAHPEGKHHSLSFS
Protocol: Reactions were carried out in a kinase buffer containing 100 mM HEPES (pH 7.4), 1 mM DTT, 10 mM MgCl2, 25 mM NaCl, and 0.01% BSA. Substrate concentrations in the assay were 5 μM ATP (200 uCi/μmole ATP) and 1 μM poly(Glu)4Tyr. Reactions were carried out at 25° C. and 1 nM JAK3.
To each well of a 96 well polycarbonate plate was added 1.5 μl of a candidate JAK3 inhibitor along with 50 μl of kinase buffer containing 2 μM poly(Glu)4Tyr and 10 μM ATP. This was then mixed and 50 μl of kinase buffer containing 2 nM JAK3 enzyme was added to start the reaction. After 20 minutes at room temperature (25 C), the reaction was stopped with 50 μl of 20% trichloroacetic acid (TCA) that also contained 0.4 mM ATP. The entire contents of each well were then transferred to a 96 well glass fiber filter plate using a TomTek Cell Harvester. After washing, 60 μl of scintillation fluid was added and ^33P incorporation detected on a Perkin Elmer TopCount.

Aurora-1 (Aurora B) = Aurora-1 (Aurora B) (Homo sapiens, UniProt Q96GD4); assay: Aurora-1 (Aurora B) inhibition assay (radiometric); type: biochemical; settings: read-out: Aurora B kinase Ki value
Chain of Aurora-1 (Aurora B) (Q96GD4 whole entry): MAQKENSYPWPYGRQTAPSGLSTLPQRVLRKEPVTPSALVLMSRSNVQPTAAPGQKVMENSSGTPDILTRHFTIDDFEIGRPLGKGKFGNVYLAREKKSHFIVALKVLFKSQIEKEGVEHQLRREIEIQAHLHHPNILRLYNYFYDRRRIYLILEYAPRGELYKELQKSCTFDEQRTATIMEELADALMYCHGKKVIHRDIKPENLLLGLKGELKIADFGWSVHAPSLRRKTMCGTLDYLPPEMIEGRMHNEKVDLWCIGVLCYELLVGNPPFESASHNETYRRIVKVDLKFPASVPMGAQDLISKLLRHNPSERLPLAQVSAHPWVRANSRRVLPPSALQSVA
Method in brief: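 Radiometric ^33P incorporation into peptide substrate, with [γ-^33P]-ATP at 800 μM final, in 25 mM HEPES pH 7.5, 10 mM MgCl2, 0.1% BSA, 10% glycerol. Compound preincubated with enzyme for 10 min at 25° C, reaction run 3 h, then captured on phosphocellulose. Ki from initial rates by non-linear regression after background subtraction.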

[1] = read-out: Aurora A kinase Ki value

SMILES	IC50 (Colo205 cells; incubated for 96 hours) [nM]	Ki (Aurora-2 (Aurora A)) [nM]	Ki (JAK3) [nM]	Ki (Aurora-1 (Aurora B))	Ki (Aurora-2 (Aurora A); [1]) [nM]	Ki (JAK3; read-out: JAK3 Ki value) [nM]	IC50 (Colo205 cells; incubated for 72 hours) [nM]
Cc1cc(Nc2cc(N3CCC3)nc(Sc3ccc(C(=O)NCc4ccccc4Cl)cc3)n2)n[nH]1 [Compound 24]	> 1000	5 to 200	500 to 2000	50 to 2000 nM			
Cc1cc(Nc2cc(N3CCC3)nc(Sc3ccc4ccccc4c3)n2)n[nH]1 [Compound 25]	> 1000		≤ 10	50 to 2000 nM	1 to 5		
Cc1cc(Nc2cc(N3CCC3)nc(Sc3ccc(NC(=O)OC(C)(C)C)cc3)n2)n[nH]1 [Compound 26]	> 1000		500 to 2000	50 to 2000 nM	5 to 200		
Cc1ccc(S(=O)(=O)Nc2ccc(Sc3nc(Nc4cc(C)[nH]n4)cc(N4CCC4)n3)cc2)cc1 [Compound 27]	> 1000	1 to 5	500 to 2000	50 to 2000 nM			
Cc1ccc(C(=O)Nc2ccc(Sc3nc(Nc4cc(C)[nH]n4)cc(N4CCC4)n3)cc2)cc1 [Compound 28]	50 to 1000	1 to 5	10 to 500	10 to 50 nM			
Cc1cc(Nc2cc(N3CCC3)nc(Sc3ccc(NC(=O)C4CCCCC4)cc3)n2)n[nH]1 [Compound 30]	50 to 1000		10 to 500	10 to 50 nM	1 to 5		
Cc1cc(Nc2cc(N3CCC3)nc(Sc3ccc(NC(=O)Cc4ccccc4)cc3)n2)n[nH]1 [Compound 35]	50 to 1000		500 to 2000	10 to 50 nM	1 to 5		
Cc1cc(Nc2cc(N3CC(C)C3)nc(Sc3ccc(NC(=O)c4ccccc4Cl)cc3)n2)n[nH]1 [Compound 39]	50 to 1000			10 to 50 nM and < 25 nM	1 to 5	10 to 500	
Cc1cc(Nc2cc(N3CCC3)nc(Sc3ccc(NC(=O)CC(F)(F)F)cc3)n2)n[nH]1 [Compound 40]	50 to 1000			≤ 10 nM	≤ 1	10 to 500	30 to 200
Cc1cc(Nc2cc(N3CCC3)nc(Sc3ccc(NC(=O)c4ccc(F)cc4F)cc3)n2)n[nH]1 [Compound 44]	50 to 1000			10 to 50 nM	1 to 5	10 to 500	
Cc1cc(Nc2cc(N3CCC3)nc(Sc3ccc(C(=O)Nc4ccccc4Cl)cc3)n2)[nH]n1 [Compound 48]	50 to 1000			≤ 10 nM	1 to 5	10 to 500	
Cc1cc(Nc2cc(N3CCC3)nc(Sc3cccc(NC(=O)c4ccccc4Cl)c3)n2)[nH]n1 [Compound 49]	> 1000			50 to 2000 nM	5 to 200	10 to 500	
CC1=NN=C(Nc2cc(N3CCC3)nc(Sc3ccc(NC(=O)c4ccccc4)cc3)n2)C1 [Compound 52]	50 to 1000		10 to 500	50 to 2000 nM	5 to 200		
Cc1cc(Nc2cc(N3CCC3)nc(Sc3ccc(NC(=O)c4ccc(Cl)cc4)cc3)n2)n[nH]1 [Compound 54]	50 to 1000	1 to 5	10 to 500	50 to 2000 nM			
CC1=NN=C(Nc2cc(N3CCC3)nc(Sc3ccc(NC(=O)c4cccc(C(F)(F)F)c4F)cc3)n2)C1 [Compound 55]	50 to 1000	≤ 1	10 to 500	≤ 10 nM			
Cc1cc(Nc2cc(N3CCC3)nc(Sc3ccc(NC(=O)Cc4cccc(Cl)c4)cc3)n2)[nH]n1 [Compound 58]	50 to 1000			10 to 50 nM and < 25 nM	1 to 5	500 to 2000	
Cc1cc(Nc2cc(N3CC(F)(C4CC4)C3)nc(Sc3ccc(N)cc3)n2)[nH]n1 [Compound 209]			≤ 10	50 to 2000 nM	5 to 200		
